Source: patent US9499550B2 (BRISTOL-MYERS SQUIBB COMPANY, priority 2012, dated 2016)
Read-outs that look alike come from different tables or passages of the source.

Key:
[1] = test system: HCV genotype 1a (H77 strain) replicon in HUH-7 cells; assay: HCV replicon luciferase reporter assay, genotype 1a; type: cell-based; settings: Hepatitis C virus, Huh-7, 72 h, 3 days incubation
Method in brief: (§1)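 Replicon inhibition for both genotypes was measured as Renilla luciferase signal (EnduRen, 7.5 μM final, 2 h) after 3-day, 37° C exposure of replicon-bearing HUH-7 cells in 4% FCS DMEM, 0.5% DMSO. The 1b construct carries S1179I; the 1a H77 construct carries P1496L and S2204I. Twenty-point, 3-fold dilutions were fitted four-parametrically for EC50, and CC50 was taken from multiplexed Cell Titer-Blue.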

[2] = test system: HCV genotype 1b (Con1) replicon in HUH-7 cells; assay: HCV replicon luciferase reporter assay, genotype 1b; type: cell-based; settings: Hepatitis C virus, Huh-7, 72 h, 3 days incubation
Method in brief: as §1

[3] = HCV genotype 1a replicon luciferase assay, range class, read-out: LE_1a (EC50, range)
[4] = HCV genotype 1b replicon luciferase assay, range class, read-out: LE_1b (EC50, range)
[5] = GETYPE1A, HCV genotype 1a replicon luciferase assay, range class, read-out: LE_1a (EC50, range)
[6] = GETYPE1B, HCV genotype 1b replicon luciferase assay, range class, read-out: LE_1b (EC50, range)
[7] = GETYPE1A, HCV genotype 1a replicon luciferase, read-out: LE_1a (EC50, range)
[8] = GETYPE1B, HCV genotype 1b replicon luciferase, read-out: LE_1b (EC50, range)

SMILES	EC50 [1, 3] [nM]	EC50 [2, 4] [nM]	also measured
COc1ccc2c(O[C@@H]3C[C@H]4C(=O)N[C@]5(C(=O)NS(=O)(=O)C6(CF)CC6)C[C@H]5/C=C\CC[C@@H](C)C[C@@H](C)[C@H](NC(=O)OC(C)(C)C(C)(F)F)C(=O)N4C3)nc(C(F)(F)F)cc2c1 [Compound 1171, 3,3-difluoro-2-methylbutan-2-yl((2R,6S,7R,9R,13aS,14aR,16aS,Z)-14a-(((1-(fluoromethyl)cyclopropyl)sulfonyl)carbamoyl)-2-((6-methoxy-3-(trifluoromethyl)isoquinolin-1-yl)oxy)-7,9-dimethyl-5,16-dioxo-1,2,3,5,6,7,8,9,10,11,13a,14,14a,15,16,16a-hexadecahydrocyclopropa[e]pyrrolo[1,2-a][1,4]diazacyclopentadecin-6-yl)carbamate]	< 5.46	< 5.46	–
COc1ccc2c(O[C@@H]3C[C@H]4C(=O)N[C@]5(C(=O)NS(=O)(=O)C6(CF)CC6)C[C@H]5/C=C\CC[C@H](C)C[C@@H](C)[C@H](NC(=O)OC5(C(F)(F)F)CCCOC5)C(=O)N4C3)nc(C(F)(F)F)cc2c1 (stereo partly drawn) [Compound 1172, 3-(trifluoromethyl)tetrahydro-2H-pyran-3-yl((2R,6S,7R,9S,13aS,14aR,16aS,Z)-14a-(((1-(fluoromethyl)cyclopropyl)sulfonyl)carbamoyl)-2-((6-methoxy-3-(trifluoromethyl)isoquinolin-1-yl)oxy)-7,9-dimethyl-5,16-dioxo-1,2,3,5,6,7,8,9,10,11,13a,14,14a,15,16,16a-hexadecahydrocyclopropa[e]pyrrolo[1,2-a][1,4]diazacyclopentadecin-6-yl)carbamate]	> 87.4	4.82 to 103	–
COc1ccc2c(O[C@@H]3C[C@H]4C(=O)N[C@]5(C(=O)NS(=O)(=O)C6(CF)CC6)C[C@H]5/C=C\CC[C@@H](C)C[C@@H](C)[C@H](NC(=O)OC5(C(F)(F)F)CCCOC5)C(=O)N4C3)nc(C(F)(F)F)cc2c1 (stereo partly drawn) [Compound 1173, 3-(trifluoromethyl)tetrahydro-2H-pyran-3-yl((2R,6S,7R,9R,13aS,14aR,16aS,Z)-14a-(((1-(fluoromethyl)cyclopropyl)sulfonyl)carbamoyl)-2-((6-methoxy-3-(trifluoromethyl)isoquinolin-1-yl)oxy)-7,9-dimethyl-5,16-dioxo-1,2,3,5,6,7,8,9,10,11,13a,14,14a,15,16,16a-hexadecahydrocyclopropa[e]pyrrolo[1,2-a][1,4]diazacyclopentadecin-6-yl)carbamate]	< 5.46	< 5.46	–
COc1ccc2c(O[C@@H]3C[C@H]4C(=O)N[C@]5(C(=O)NS(=O)(=O)C6(CF)CC6)C[C@H]5/C=C\CC[C@H](C)C[C@@H](C)[C@H](NC(=O)OC(C)(C)C(F)(F)F)C(=O)N4C3)ncc(C(F)(F)F)c2c1 [Compound 1174, 1,1,1-trifluoro-2-methylpropan-2-yl((2R,6S,7R,9S,13aS,14aR,16aS,Z)-14a-(((1-(fluoromethyl)cyclopropyl)sulfonyl)carbamoyl)-2-((6-methoxy-4-(trifluoromethyl)isoquinolin-1-yl)oxy)-7,9-dimethyl-5,16-dioxo-1,2,3,5,6,7,8,9,10,11,13a,14,14a,15,16,16a-hexadecahydrocyclopropa[e]pyrrolo[1,2-a][1,4]diazacyclopentadecin-6-yl)carbamate]	4.82 to 103	4.82 to 103	–
COc1ccc2c(O[C@@H]3C[C@H]4C(=O)N[C@]5(C(=O)NS(=O)(=O)C6(CF)CC6)C[C@H]5/C=C\CC[C@@H](C)C[C@@H](C)[C@H](NC(=O)OC(C)(C)C(F)(F)F)C(=O)N4C3)ncc(C(F)(F)F)c2c1 [Compound 1175, 1,1,1-trifluoro-2-methylpropan-2-yl((2R,6S,7R,9R,13aS,14aR,16aS,Z)-14a-(((1-(fluoromethyl)cyclopropyl)sulfonyl)carbamoyl)-2-((6-methoxy-4-(trifluoromethyl)isoquinolin-1-yl)oxy)-7,9-dimethyl-5,16-dioxo-1,2,3,5,6,7,8,9,10,11,13a,14,14a,15,16,16a-hexadecahydrocyclopropa[e]pyrrolo[1,2-a][1,4]diazacyclopentadecin-6-yl)carbamate]	< 5.46	< 5.46	–
COc1ccc2c(O[C@@H]3C[C@H]4C(=O)N[C@]5(C(=O)NS(=O)(=O)C6(CF)CC6)C[C@H]5/C=C\CC[C@H](C)C[C@@H](C)[C@H](NC(=O)OC5(C(F)(F)F)CCCOC5)C(=O)N4C3)ncc(C(F)(F)F)c2c1 (stereo partly drawn) [Compound 1176, 3-(trifluoromethyl)tetrahydro-2H-pyran-3-yl((2R,6S,7R,9S,13aS,14aR,16aS,Z)-14a-(((1-(fluoromethyl)cyclopropyl)sulfonyl)carbamoyl)-2-((6-methoxy-4-(trifluoromethyl)isoquinolin-1-yl)oxy)-7,9-dimethyl-5,16-dioxo-1,2,3,5,6,7,8,9,10,11,13a,14,14a,15,16,16a-hexadecahydrocyclopropa[e]pyrrolo[1,2-a][1,4]diazacyclopentadecin-6-yl)carbamate]	4.82 to 103	4.82 to 103	–
COc1ccc2c(O[C@@H]3C[C@H]4C(=O)N[C@]5(C(=O)NS(=O)(=O)C6(CF)CC6)C[C@H]5/C=C\CC[C@@H](C)C[C@@H](C)[C@H](NC(=O)OC5(C(F)(F)F)CCCOC5)C(=O)N4C3)ncc(C(F)(F)F)c2c1 (stereo partly drawn) [Compound 1177, 3-(trifluoromethyl)tetrahydro-2H-pyran-3-yl((2R,6S,7R,9R,13aS,14aR,16aS,Z)-14a-(((1-(fluoromethyl)cyclopropyl)sulfonyl)carbamoyl)-2-((6-methoxy-4-(trifluoromethyl)isoquinolin-1-yl)oxy)-7,9-dimethyl-5,16-dioxo-1,2,3,5,6,7,8,9,10,11,13a,14,14a,15,16,16a-hexadecahydrocyclopropa[e]pyrrolo[1,2-a][1,4]diazacyclopentadecin-6-yl)carbamate]	< 5.46	< 5.46	–
CC[C@@H]1C[C@@H](C)CC/C=C\[C@@H]2C[C@@]2(C(=O)NS(=O)(=O)C2(C)CC2)NC(=O)[C@@H]2C[C@@H](Oc3nc(OC)cc4cc(OC)ccc34)CN2C(=O)[C@H]1NC(=O)OC1(C(F)(F)F)CCCOC1 (stereo partly drawn) [Compound 1178, 3-(trifluoromethyl)tetrahydro-2H-pyran-3-yl((2R,6S,7R,9S,13aS,14aR,16aS,Z)-2-((3,6-dimethoxyisoquinolin-1-yl)oxy)-7-ethyl-9-methyl-14a-(((1-methylcyclopropyl)sulfonyl)carbamoyl)-5,16-dioxo-1,2,3,5,6,7,8,9,10,11,13a,14,14a,15,16,16a-hexadecahydrocyclopropa[e]pyrrolo[1,2-a][1,4]diazacyclopentadecin-6-yl)carbamate]	< 5.46	< 5.46	–
COc1ccc2c(O[C@@H]3C[C@H]4C(=O)N[C@]5(C(=O)NS(=O)(=O)C6(C(F)F)CC6)C[C@H]5/C=C\CC[C@@H](C)C[C@@H](C)[C@H](NC(=O)OC(C)(C)C)C(=O)N4C3)nc(OC)cc2c1 [Compound 1180, tert-butyl ((2R,6S,7R,9R,13aS,14aR,16aS,Z)-14a-(((1-(difluoromethyl)cyclopropyl)sulfonyl)carbamoyl)-2-((3,6-dimethoxyisoquinolin-1-yl)oxy)-7,9-dimethyl-5,16-dioxo-1,2,3,5,6,7,8,9,10,11,13a,14,14a,15,16,16a-hexadecahydrocyclopropa[e]pyrrolo[1,2-a][1,4]diazacyclopentadecin-6-yl)carbamate]	< 5.46	< 5.46	–
COc1ccc2c(O[C@@H]3C[C@H]4C(=O)N[C@]5(C(=O)NS(=O)(=O)C6(C(F)F)CC6)C[C@H]5/C=C\CC[C@@H](C)C[C@@H](C)[C@H](NC(=O)OC(C)(C)C(F)(F)F)C(=O)N4C3)nc(OC)cc2c1 [Compound 1181]	–	–	EC50 [1, 5]: < 5.46 nM; EC50 [2, 6]: < 5.46 nM
COc1ccc2c(O[C@@H]3C[C@H]4C(=O)N[C@]5(C(=O)NS(=O)(=O)C6(C(F)F)CC6)C[C@H]5/C=C\CC[C@@H](C)C[C@@H](C)[C@H](NC(=O)OC(C)(C)C(C)(F)F)C(=O)N4C3)nc(OC)cc2c1 [Compound 1182]	–	–	EC50 [1, 5]: < 5.46 nM; EC50 [2, 6]: < 5.46 nM
COc1ccc2c(O[C@@H]3C[C@H]4C(=O)N[C@]5(C(=O)NS(=O)(=O)C6(CF)CC6)C[C@H]5/C=C\CC[C@@H](C)C[C@@H](C)[C@H](NC(=O)O[C@@]5(C(F)(F)F)CCCOC5)C(=O)N4C3)nc(-c3ccc(OC(C)C)cc3)cc2c1 [Compound 1183]	–	–	EC50 [1, 7]: 1.01 to 5 nM; EC50 [2, 8]: 1.01 to 5 nM
COc1ccc2c(O[C@@H]3C[C@H]4C(=O)N[C@]5(C(=O)NS(=O)(=O)C6(CF)CC6)C[C@H]5/C=C\CC[C@@H](C)C[C@@H](C)[C@H](NC(=O)O[C@]5(C(F)(F)F)CCCOC5)C(=O)N4C3)nc(-c3ccc(OC(C)C)cc3)cc2c1 [Compound 1184]	–	–	EC50 [1, 7]: 1.01 to 5 nM; EC50 [2, 8]: 1.01 to 5 nM
COc1cc2ccnc(O[C@@H]3C[C@H]4C(=O)N[C@]5(C(=O)NS(=O)(=O)C6(CF)CC6)C[C@H]5/C=C\CC[C@@H](C)C[C@@H](C)[C@H](NC(=O)OC(C)(C)C(F)(F)F)C(=O)N4C3)c2cc1F [Compound 1185]	–	–	EC50 ([1]; GETYPE1A, HCV genotype 1a replicon luciferase, read-out: LE_1a (EC50)): 2.91 nM; EC50 [1, 7]: 1.01 to 5 nM; EC50 ([2]; GETYPE1B, HCV genotype 1b replicon luciferase, read-out: LE_1b (EC50)): 0.83 nM; EC50 [2, 8]: 0.51 to 1 nM
COc1cc2ccnc(O[C@@H]3C[C@H]4C(=O)N[C@]5(C(=O)NS(=O)(=O)C6(CF)CC6)C[C@H]5/C=C\CC[C@H](C)C[C@@H](C)[C@H](NC(=O)OC(C)(C)C(F)(F)F)C(=O)N4C3)c2cc1F [Compound 1186]	–	–	EC50 [1, 7]: 5.01 to 35 nM; EC50 [2, 8]: 1.01 to 5 nM
